Test results: patent publication US5693609A, “Acylated insulin analogs” (Eli Lilly and Company, priority 1994, dated 1997)

Assays:
male rats = conditions: 25 U/mL, cited from earlier work; for hypoglycemic effect, administered intramuscularly: intramuscularly (FIG. 6 of Hashimoto et al.); for hypoglycemic effect, administered intravenously: intravenously (FIG. 5 of Hashimoto et al.)
conscious dog model = assay: Plasma glucose after subcutaneous injection in conscious dog model; type: in vivo, beagles; conditions: for Plasma glucose concentration: n = 1
Experimental: Experiments were conducted in overnight-fasted, conscious, adult (1-2 years of age) male and female beagles weighing 8-15 kg. At least ten days prior to the study, animals were anesthetized with isoflurane, and a cut-down was made in the left or right inguinal region. Silastic catheters were inserted into the femoral artery and into the proximal caudal femoral vein and secured with 4-0 silk suture. The free ends of the catheters were passed subcutaneously to the back using a trocar needle. The catheters were then filled with a glycerol/heparin solution (3:1, v/v; final heparin concentration of 250 KIU/ml), and the free ends were knotted and placed in a subcutaneous pocket to allow complete closure of the skin. Keflex was administered both pre-operatively (20 mg/kg, IV and 20 mg/kg, I.M.) and post-operatively (250 mg, p.o. once daily for seven days) to prevent infections. Torbugesic (1.5 mg/kg, I.M.) was administered post-operatively to control pain. Blood was drawn just prior to the study day to determine the health of the animal. Only animals with hematocrits above 38% and leukocyte counts below 16,000/mm^3 were used. The afternoon before the experiment, the free ends of the catheters were exteriorized from the subcutaneous pocket through a small incision made under local anesthesia (2% lidocaine), and the dog was fitted with a tether system jacket and collar assembly. The morning of the experiment, the contents of the arterial catheter were aspirated (only the arterial line was used in these studies), the catheter was flushed with saline, and an extension line (protected by a stainless steel tether) was attached to the catheter. The dog was placed in a metabolic cage, and the catheter extension line and tether was attached to a swivel system to allow the dog to move freely about the cage. After a 15 minute rest period (45 minutes, controls), blood (2-3.5 ml) was drawn for determination of the plasma glucose concentration. A second baseline sample was drawn 15 minutes later (0 time). Test substance (phosphate buffered saline or […] of B28-N^ε -Palmitoyl Lys^B28 Pro^B29 -human insulin; this does is the molar equivalent of 1.75 U/kg of human insulin) was administered subcutaneously in the dorsal of the neck.
Arterial blood samples (2-3.5 ml) were then taken at least every 30 minutes for the next two (controls) to six (B28-N^ε -palmitoyl Lys^B28 Pro^B29 -human insulin) hours. Samples were collected in vacuum blood collection tubes containing disodium EDTA and immediately placed on ice. The samples were centrifuged, and the resulting plasma was transferred to polypropylene test tubes and stored on ice or refrigerated for the duration of the study.
At the conclusion of the experiment, the animal was anesthetized (isoflurane); the catheter was flushed with fresh saline and filled with the glycerol/heparin mixture; the free end of the catheter was knotted and placed subcutaneously as described earlier; and antibiotic was administered (300 mg Keflex, I.M.). Plasma glucose concentrations were determined the day of the study using a glucose oxidase method in a Beckman glucose analyzer. Values are listed as the mean ± the standard error of the mean (SEM).

B1,B29-N^α N^ε -dipalmitoyl insulin [B1,B29-Nα, N^ε -dipalmitoyl insulin]
hypoglycemic effect, administered intramuscularly (male rats): negligible effect
hypoglycemic effect, administered intravenously (male rats): very low activity

B1-N^α -palmitoyl insulin
hypoglycemic effect, administered intramuscularly (male rats): only a short hypoglycemic effect
hypoglycemic effect, administered intravenously (male rats): very low activity

B28-N^ε -Palmitoyl Lys^B28 Pro^B29 -human insulin
Plasma glucose concentration (conscious dog model; 30 minutes after 10.5 subcutaneously): 114 mg/dL
Plasma glucose concentration (conscious dog model; 60 minutes after 10.5 subcutaneously): 107 mg/dL
Plasma glucose concentration (conscious dog model; 90 minutes after 10.5 subcutaneously): 102 mg/dL
Plasma glucose concentration (conscious dog model; 120 minutes after 10.5 subcutaneously): 99 mg/dL
Plasma glucose concentration (conscious dog model; 150 minutes after 10.5 subcutaneously): 101 mg/dL
Plasma glucose concentration (conscious dog model; 180 minutes after 10.5 subcutaneously): 100 mg/dL
Plasma glucose concentration (conscious dog model; 210 minutes after 10.5 subcutaneously): 100 mg/dL
Plasma glucose concentration (conscious dog model; 240 minutes after 10.5 subcutaneously): 98 mg/dL
Plasma glucose concentration (conscious dog model; 270 minutes after 10.5 subcutaneously): 87 mg/dL
Plasma glucose concentration (conscious dog model; 300 minutes after 10.5 subcutaneously): 82 mg/dL
Plasma glucose concentration (conscious dog model; 330 minutes after 10.5 subcutaneously): 79 mg/dL
Plasma glucose concentration (conscious dog model; 360 minutes after 10.5 subcutaneously): 75 mg/dL
decrease in the plasma glucose concentration (conscious dog model; six hours post-injection, vs baseline): 35%
activity in conscious dog model (in words) (conscious dog model; subcutaneous, 10.5): insulin-like activity
Plasma glucose concentration (conscious dog model; time 0 minutes (baseline), overnight-fasted dog): 116 mg/dL
Plasma glucose concentration (conscious dog model; time -15 minutes (baseline, before injection), overnight-fasted dog): 116 mg/dL
